Experimental data as given in ChEMBL document CHEMBL1128401, “Structure-activity relationships in the 8-amino-6,7,8,9-tetrahydro-3H-benz[e]indole ring system. 1. Effects of substituents in the aromatic system on serotonin and dopamine receptor subtypes” (J Med Chem, 1995).
Active and inactive are the calls of the source. No cut-off for these calls is given here.

Legend:
[1] = molecular target: T1, 5-hydroxytryptamine receptor 1A (Rattus norvegicus, UniProt P19327); experiment: Binding affinity against 5-hydroxytryptamine 1A receptor from CHO-K1 cells, using [3H]8-OH-DPAT as the radioligand.; type: cell-based
T1 sequence (P19327 whole entry): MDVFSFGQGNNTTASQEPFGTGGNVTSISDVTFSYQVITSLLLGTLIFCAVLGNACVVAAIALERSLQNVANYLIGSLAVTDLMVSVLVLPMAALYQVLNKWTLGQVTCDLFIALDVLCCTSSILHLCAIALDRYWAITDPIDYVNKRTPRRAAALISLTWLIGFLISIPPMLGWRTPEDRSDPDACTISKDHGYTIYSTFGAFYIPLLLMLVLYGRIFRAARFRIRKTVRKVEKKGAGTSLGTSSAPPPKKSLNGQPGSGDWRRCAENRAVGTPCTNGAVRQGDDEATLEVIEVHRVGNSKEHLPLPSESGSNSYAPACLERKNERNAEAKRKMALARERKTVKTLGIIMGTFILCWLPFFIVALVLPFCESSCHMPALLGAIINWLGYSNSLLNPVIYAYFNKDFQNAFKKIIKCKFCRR

[2] = molecular target: 5-hydroxytryptamine receptor 1D (Homo sapiens, UniProt P28221); experiment: Binding affinity against 5-hydroxytryptamine 1D receptor alpha expressed in CHO-K1 cells, using [3H]-5-HT as the radioligand.; type: cell-based; settings: read-out: Ki
D(3) dopamine receptor [3] = molecular target: T2, D(3) dopamine receptor (Rattus norvegicus, UniProt P19020); experiment: Binding affinity against Dopamine receptor D3 expressed in CHO-K1 cells, using [3H]spiperone as the radioligand.; type: cell-based
Rattus norvegicus [4] = experiment: Bioavailability in male Sprague-Dawley rats, after the iv administration at a dose of 2.0(pmol/g/h); type: ADME, organism-based; settings: in vivo
Rattus norvegicus [5] = experiment: Bioavailability in male Sprague-Dawley rats, after the po administration at a dose of 10.0(pmol/g/h); type: ADME, organism-based; settings: in vivo
[6] = Bioavailability in rat plasma following iv/po dose; type: ADME, organism-based
[7] = tmax in hours at a iv dose of 2.0(pmol/g/h).; type: ADME, organism-based; settings: in vivo
[8] = tmax in hours at a po dose of 10.0(pmol/g/h).; type: ADME, organism-based; settings: in vivo
[9] = molecular target: 5-hydroxytryptamine receptor 1B (Homo sapiens, UniProt P28222); experiment: Binding affinity against 5-hydroxytryptamine 1D receptor beta expressed in CHO-K1 cells, using [3H]5-HT as the radioligand.; type: cell-based
D(2) dopamine receptor [10] = molecular target: T3, D(2) dopamine receptor (Rattus norvegicus, UniProt P61169); experiment: Binding affinity against Dopamine receptor D2 expressed in CHO-K1 cells, using [3H]U-86170 as the radioligand.; type: cell-based
D(3) dopamine receptor [11] = molecular target: T2, D(3) dopamine receptor; experiment: The compound was tested in vitro for binding affinity against cloned mammalian Dopamine receptor D3 expressed in CHO cells by, using [3H]spiperone as radioligand; type: cell-based
Rattus norvegicus [12] = experiment: The compound was tested in vivo for DOPA accumulation in hemispheres (cortex) against reserpine-pretreated rats; I= inactive at the highest dose tested (50).; type: functional, organism-based
Rattus norvegicus [13] = experiment: The compound was tested in vivo for DOPA accumulation in limbic system against reserpine-pretreated rats; I= inactive at the highest dose tested (50).; type: functional, organism-based
Rattus norvegicus [14] = experiment: compound was tested in vivo for 5-HTP accumulation in corpus striatum against reserpine-pretreated rats, activity expressed as ED50; type: functional
Rattus norvegicus [15] = experiment: compound was tested in vivo for 5-HTP accumulation in hemispheres (cortex) against reserpine-pretreated rats; type: functional
Rattus norvegicus [16] = experiment: compound was tested in vivo for 5-HTP accumulation in limbic system against reserpine-pretreated rats,; type: functional
Rattus norvegicus [17] = experiment: compound was tested in vivo for DOPA accumulation in corpus striatum against reserpine-pretreated rats; I= inactive at the highest dose tested (50).; type: functional, organism-based
D(2) dopamine receptor [18] = molecular target: T3, D(2) dopamine receptor; experiment: Binding affinity against Dopamine receptor D2 from CHO-K1 cells, using [3H]U-86,170 as the radioligand.; type: cell-based
D(3) dopamine receptor [19] = molecular target: T2, D(3) dopamine receptor; experiment: Binding affinity against Dopamine receptor D3 from CHO-K1 cells, using [3H]spiperone as the radioligand.; type: cell-based
Rattus norvegicus [20] = experiment: In vivo for DOPA accumulation in corpus striatum against reserpine-pretreated rats.; type: functional
Rattus norvegicus [21] = experiment: In vivo for 5-HTP accumulation in corpus striatum against reserpine-pretreated rats.; type: functional
Rattus norvegicus [22] = experiment: In vivo for 5-HTP accumulation in hemispheres (cortex) against reserpine-pretreated rats.; type: functional
Rattus norvegicus [23] = experiment: In vivo for 5-HTP accumulation in limbic system against reserpine-pretreated rats.; type: functional
Rattus norvegicus [24] = experiment: In vivo for DOPA accumulation in limbic system against reserpine-pretreated rats.; type: functional
Rattus norvegicus [25] = experiment: The Compound was tested in vivo for DOPA accumulation in hemispheres (cortex) against reserpine-pretreated rats; Iinactive at the highest dose tested (12.5).; type: functional, organism-based
Rattus norvegicus [26] = experiment: The Compound was tested in vivo for DOPA accumulation in hemispheres (cortex) against reserpine-pretreated rats;I= inactive at the highest dose (12.5); type: functional, organism-based
Rattus norvegicus [27] = experiment: Compound was tested in vivo for DOPA accumulation in corpus striatum against reserpine-pretreated rats; P=significant partial reduction only at the highest dose tested (50).; type: functional, organism-based
Rattus norvegicus [28] = experiment: The Compound was tested in vivo for DOPA accumulation in limbic system against reserpine-pretreated rats; P=significant partial reduction only at the highest dose tested (50).; type: functional, organism-based
Rattus norvegicus [29] = experiment: The Compound was tested in vivo for DOPA accumulation in hemispheres (cortex) against reserpine-pretreated rats; I=inactive at the highest dose tested (50).; type: functional, organism-based
D(3) dopamine receptor [30] = molecular target: T2, D(3) dopamine receptor; experiment: Compound was tested for binding affinity against Dopamine receptor D3 expressed in CHO-K1 cells, using [3H]spiperone as the radioligand; I= inactive at the highest dose tested (12.5).; type: cell-based
D(2) dopamine receptor [31] = molecular target: T3, D(2) dopamine receptor; settings: cho-k1
Rattus norvegicus [32] = experiment: The Compound was tested in vivo for DOPA accumulation in hemispheres (cortex) against reserpine-pretreated rats; P=significant partial reduction only at the highest dose tested (50).; type: functional, organism-based
Rattus norvegicus [33] = experiment: Compound was tested in vivo for DOPA accumulation in corpus striatum against reserpine-pretreated rats;P= significant partial reduction only at the highest dose tested (50).; type: functional, organism-based
Rattus norvegicus [34] = experiment: The Compound was tested in vivo for DOPA accumulation in hemispheres (cortex) against reserpine-pretreated rats;I= inactive at the highest dose tested (50).; type: functional, organism-based

5-hydroxytryptamine receptor 1B, sequence (P28222 whole entry): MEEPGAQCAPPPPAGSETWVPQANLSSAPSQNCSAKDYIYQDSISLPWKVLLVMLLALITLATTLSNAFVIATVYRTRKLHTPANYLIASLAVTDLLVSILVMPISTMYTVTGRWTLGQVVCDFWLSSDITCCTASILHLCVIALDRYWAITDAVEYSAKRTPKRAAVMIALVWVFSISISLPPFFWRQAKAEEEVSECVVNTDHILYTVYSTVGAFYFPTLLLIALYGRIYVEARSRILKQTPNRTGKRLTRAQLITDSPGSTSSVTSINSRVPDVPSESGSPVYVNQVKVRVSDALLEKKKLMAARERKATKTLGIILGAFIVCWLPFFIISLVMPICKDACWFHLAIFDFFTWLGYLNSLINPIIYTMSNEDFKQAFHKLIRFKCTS
T2 sequence (P19020 whole entry): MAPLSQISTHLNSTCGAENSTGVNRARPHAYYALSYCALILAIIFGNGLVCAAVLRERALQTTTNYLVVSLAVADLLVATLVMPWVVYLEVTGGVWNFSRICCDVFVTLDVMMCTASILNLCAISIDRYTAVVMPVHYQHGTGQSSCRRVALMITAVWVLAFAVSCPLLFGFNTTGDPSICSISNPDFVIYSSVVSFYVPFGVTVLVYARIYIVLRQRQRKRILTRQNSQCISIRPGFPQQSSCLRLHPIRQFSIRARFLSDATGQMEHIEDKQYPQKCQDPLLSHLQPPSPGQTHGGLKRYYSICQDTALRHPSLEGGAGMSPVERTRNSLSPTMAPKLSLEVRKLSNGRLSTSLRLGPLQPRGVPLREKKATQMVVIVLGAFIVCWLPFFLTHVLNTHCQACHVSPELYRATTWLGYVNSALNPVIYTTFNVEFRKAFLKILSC
5-hydroxytryptamine receptor 1D, sequence (P28221 whole entry): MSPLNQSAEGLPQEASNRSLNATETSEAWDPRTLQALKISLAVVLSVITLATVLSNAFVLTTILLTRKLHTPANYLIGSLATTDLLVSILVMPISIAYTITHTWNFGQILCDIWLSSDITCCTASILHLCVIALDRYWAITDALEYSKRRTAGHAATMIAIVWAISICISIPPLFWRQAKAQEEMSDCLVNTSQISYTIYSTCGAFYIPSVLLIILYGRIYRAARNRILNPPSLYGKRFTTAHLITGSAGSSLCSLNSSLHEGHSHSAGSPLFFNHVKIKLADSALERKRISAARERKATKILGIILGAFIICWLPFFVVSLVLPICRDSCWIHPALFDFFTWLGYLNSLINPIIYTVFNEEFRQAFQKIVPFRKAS
T3 sequence (P61169 whole entry): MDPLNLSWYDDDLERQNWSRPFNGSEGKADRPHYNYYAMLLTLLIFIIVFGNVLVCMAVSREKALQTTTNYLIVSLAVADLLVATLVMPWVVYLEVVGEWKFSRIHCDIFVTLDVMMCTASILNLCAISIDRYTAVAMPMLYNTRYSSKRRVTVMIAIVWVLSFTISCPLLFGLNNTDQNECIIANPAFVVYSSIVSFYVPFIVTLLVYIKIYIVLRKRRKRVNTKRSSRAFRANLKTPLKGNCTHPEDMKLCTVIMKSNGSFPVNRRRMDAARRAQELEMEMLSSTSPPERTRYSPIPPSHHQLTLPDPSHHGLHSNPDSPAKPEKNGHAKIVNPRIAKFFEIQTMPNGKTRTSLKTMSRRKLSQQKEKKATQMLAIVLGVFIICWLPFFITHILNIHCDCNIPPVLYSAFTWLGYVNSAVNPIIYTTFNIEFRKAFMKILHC

CCCN(CCC)C1CCc2ccc3[nH]cc(C(=O)C(=O)N(CC)CC)c3c2C1 (stereo not drawn)
Ki [1]: 7.3 nM

CCCN(CCC)C1CCc2ccc3[nH]cc(C)c3c2C1 (stereo not drawn)
Ki [2]: 43 nM
Ki (D(3) dopamine receptor [3]): 67 nM

CN(C)[C@@H]1CCc2ccc3[nH]ccc3c2C1
AUC (Rattus norvegicus [4]): 431 pM ml-1
AUC (Rattus norvegicus [5]): 848 pM ml-1
bioavailability [6]: 46%
Tmax [7]: 2 h
T max [8]: 150 h

CCCNC1CCc2cc(F)ccc2C1 (stereo not drawn)
Ki [1]: 134 nM
Ki ([9]; read-out: Ki): 1510 nM
Ki [2]: 585 nM
Ki (D(2) dopamine receptor [10]): 162 nM
Ki (D(3) dopamine receptor [11]): 156 nM
ED50 (Rattus norvegicus [12]): inactive
ED50 (Rattus norvegicus [13]): inactive
ED50 (Rattus norvegicus [14]): 9.53 µmol/kg
ED50 (Rattus norvegicus [15]): 12.8 µmol/kg
ED50 (Rattus norvegicus [16]): 15.5 µmol/kg
ED50 (Rattus norvegicus [17]): inactive

CCCN(CCC)[C@@H]1CCc2ccc3[nH]cc(C(=O)C(N)=O)c3c2C1
Ki [1]: 17 nM
Ki ([9]; read-out: Ki): 856 nM
Ki [2]: 54 nM
Ki (D(2) dopamine receptor [18]): 472 nM
Ki (D(3) dopamine receptor [19]; cho-k1): Not Active

CCCN(CCC)C1CCc2ccc3[nH]ccc3c2C1 (stereo not drawn)
Ki ([9]; read-out: Ki): 349 nM
Ki [2]: 40 nM
Ki (D(2) dopamine receptor [10]): 15 nM
Ki (D(3) dopamine receptor [3]): 37 nM
ED50 (Rattus norvegicus [20]): 0.3 µmol/kg
ED50 (Rattus norvegicus [21]): 0.076 µmol/kg
ED50 (Rattus norvegicus [22]): 0.17 µmol/kg
ED50 (Rattus norvegicus [23]): 0.096 µmol/kg
ED50 (Rattus norvegicus [24]): 0.15 µmol/kg
ED50 (Rattus norvegicus [25]): inactive

CCCN(CCC)[C@H]1CCc2cc(F)c3[nH]ccc3c2C1
Ki [1]: 3.7 nM
Ki ([9]; read-out: Ki): 948 nM
Ki (D(2) dopamine receptor [18]): 4.4 nM
ED50 (Rattus norvegicus [20]): 0.43 µmol/kg
ED50 (Rattus norvegicus [21]): 0.42 µmol/kg
ED50 (Rattus norvegicus [22]): 0.83 µmol/kg
ED50 (Rattus norvegicus [23]): 0.74 µmol/kg
ED50 (Rattus norvegicus [24]): 0.8 µmol/kg
ED50 (Rattus norvegicus [26]): inactive

CCCN(CCC)[C@H]1CCc2ccc3[nH]cc(C#N)c3c2C1
Ki [1]: 0.5 nM
Ki ([9]; read-out: Ki): 304 nM
Ki [2]: 42 nM
Ki (D(2) dopamine receptor [10]): 419 nM
Ki (D(3) dopamine receptor [3]): 391 nM
ED50 (Rattus norvegicus [27]): Weak activity
ED50 (Rattus norvegicus [28]): Weak activity
ED50 (Rattus norvegicus [29]): inactive

CCCN(CCC)[C@H]1CCc2ccc3[nH]cc(C(=O)C(N)=O)c3c2C1
Ki [1]: 49 nM
Ki ([9]; read-out: Ki): 1100 nM
Ki [2]: 440 nM
Ki (D(3) dopamine receptor [30]): Not Active
Ki (D(2) dopamine receptor [31]): Not Active

CCCN(CCC)C1CCc2ccc3[nH]cc(Cl)c3c2C1 (stereo not drawn)
Ki [1]: 2 nM
Ki ([9]; cho-k1): Not Active
Ki [2]: 23 nM
Ki (D(2) dopamine receptor [10]): 9.8 nM
Ki (D(3) dopamine receptor [3]): 15 nM
ED50 (Rattus norvegicus [32]): Weak activity

CCCN(CCC)C1CCc2ccc3[nH]cc(C(C)=O)c3c2C1 (stereo not drawn)
Ki [1]: 14 nM
Ki ([9]; read-out: Ki): 587 nM
Ki [2]: 108 nM
Ki (D(2) dopamine receptor [10]): 206 nM
Ki (D(3) dopamine receptor [3]): 320 nM
ED50 (Rattus norvegicus [33]): Weak activity
ED50 (Rattus norvegicus [21]): 16 µmol/kg
ED50 (Rattus norvegicus [22]): 13 µmol/kg
ED50 (Rattus norvegicus [23]): 15.5 µmol/kg
ED50 (Rattus norvegicus [34]): inactive
ED50 (Rattus norvegicus [28]): Weak activity

CCCc1c[nH]c2c(F)cc3c(c12)CC(N(CCC)CCC)CC3 (stereo not drawn)
Ki [1]: 11 nM
Ki ([9]; read-out: Ki): 177 nM
Ki [2]: 8.4 nM
Ki (D(2) dopamine receptor [18]): 5.9 nM
Ki (D(3) dopamine receptor [19]; read-out: Ki): 111 nM
